Data published in US8119400B2, “Methods of inhibiting smooth muscle cell migration and proliferation” (Beth Isreal Deaconess Medical Center, Inc., priority 2005, dated 2012).
Entries after “also recorded” stand apart in the source; their conditions may differ. No end group written: not given here. *: point of attachment. Myristoyl = CCCCCCCCCCCCCC(=O)*; {P} = phosphate

Columns and labels:
VSMCs [1] = conditions: 100 μM, 24 hours, FBS and TNF-α stimulus
Procedure: To assess cellular migration, a fluorescent migration assay (BD Biosciences, San Jose, Calif.) was utilized. In this assay, VSMC's grown in culture were labeled with 1 μM calcein. Approximately 50,000 cells, suspended in serum free media, were loaded onto a 0.3 cm^2 insert. The surface of the insert is a fluorescently-opaque polyethylene terephthalate (PET) membrane with 8 μm pores that are sufficiently large to permit cells to migrate across its surface. The insert was placed in a tissue culture plate with a chemotactic stimulus, TNF-α, in the lower well, which contained media with 30% FBS and TNF-A at a concentration of 200 Units/ml. Immediately after the inserts were placed into the respective wells, the wells were excited at a wavelength of 485 nm and the fluorescence emission was read at 535 nm. At the order of magnitude of cells that were used, the fluorescence is proportional to cell number in a linear relationship. After 24 hours, the plate was excited a second time and emission at 535 nm was read. Fluorescence was read only from the bottom well, such that only cells that have migrated contribute to the measured fluorescence. The proportion of cells that migrated was determined by dividing the fluorescence of the bottom of the wells at 24 hours by the initial fluorescence from the top of the wells at the time of plating. […]

VSMCs [2] = conditions: 100 μM, after 5 days of serum stimulation
Procedure: When it is reduced, it emits fluorescence at 590 nm. Therefore, emission at 590 nm was used as a marker for relative cellular proliferation. Cells were incubated in the dark in media containing 10% alamarBlue (BioSource International, Carmilla, Calif.) and 10% FBS for four hours. After incubation, 1 ml of media from the incubated cells was mixed with 1 ml of media containing 10% FBS and the emission at 590 nm was recorded.
A time-zero alamarBlue Assay was performed after a 12-hour period of starvation to assure equal cell loading and synchronization in the cell cycle. The cells were incubated with predetermined concentrations of the PKC inhibitor, 20-28. Cells were incubated in media with 30% FBS for a total of 24 hours. At that point, alamarBlue assays were performed at predetermined intervals. After each assay was completed, the media was replenished with media containing 30% FBS. As in the migration assay, an unstimulated, negative control with standard media was assayed.
To inhibit the effects of MARCKS activity, cells in culture were treated with the protein kinase C inhibitor 20-28 (Calbiochem, La Jolla, Calif.). […] Eichholtz, T. et al. (1993) J. Biol. Chem. 268:1982-1986.

MARCKS protein [3] = experiment: MARCKS protein Western blot, HVSMCs; assay type: cell-based, human; conditions: 100 nM, 3 days after lipofection
Procedure: (§1) MARCKS knockdown was achieved by lipofection of HVSMCs and HECs with MARCKS siRNA. Lipofection was performed using the DharmAFECT1 transfection reagent (Dharmacon) for 24 hours in serum- and antibiotic-free media as per manufacturer's protocol.
(§2) Cell extracts were recovered from 6-well plates after siRNA lipofection and analyzed by sodium dodecyl sulfate-polyacrylamide gel electrophoresis (SDS-PAGE) and Western blotting with the use of standard techniques. Antibodies used for protein detection were: mouse monoclonal anti-GAPDH (1:10,000 dilution, Ambion), goat polyclonal anti-MARCKS (N-19) IgG (1:100 dilution, Santa Cruz Biotechnology, Santa Cruz, Calif.), mouse monoclonal anti-p27^kip-1 (1:250 dilution, Pharmingen, San Diego, Calif.) and mouse anti-β-tubulin IgM (clone 5H1) (1:250 dilution, Pharmingen, San Diego, Calif.). Secondary antibodies used were peroxidase-conjugated goat anti-mouse IgG (H+L) (1:1,000-1:5,000 dilution, Chemicon International, Temecula, Calif.) and peroxidase-conjugated rabbit anti-goat IgG (H+L) (1:500 dilution, Bio-Rad). Densitometry was performed using Adobe Photoshop 6.0 or NIH Image J 1.34.

HVSMCs [4] = experiment: Fluoroblok migration assay, HVSMCs; assay type: cell-based, human; conditions: 100 nM, 3 days after lipofection, 30% FBS
Procedure: The migratory and proliferative abilities of HVSMCs and HECs were assessed after MARCKS knockdown using migration and proliferation assays. Phenotypic analysis of HVSMC migration was performed using the Fluoroblok migration assay (BD Biosciences, San Jose, Calif.) to measure the ability of calcein-AM fluorescently-labeled cells to migrate through a PET membrane with […] towards a chemotactant stimulus of 30% FBS. Briefly, VSMCs were incubated in 10 μM calcein-AM (Invitrogen) for 1 hour, trypsinized, and resuspended in serum-free VSMC media. In this assay, the upper chamber of the Transwell insert is separated from the lower chamber by a fluorescently opaque polyethyleneterephthalate (PET) membrane with 8 μm pores at the base of the insert. Approximately 50,000 VSMCs were loaded in each of the upper wells. The lower wells contained media supplemented with serum-free VSMC media, VSMC media with 30% FBS, or EC-conditioned media to stimulate cell migration. At time 0, the upper chambers were read at an excitation of 485 nm and an emission of 535 nm on a Biotek Fluorometer FLX800 (BioTek Instruments) and returned to the incubator. After 24 hours, the lower chambers were read with the same settings. The proportion of cells migrated were calculated by dividing the fluorescent intensity after 24 hours by the intensity read at time 0. […]

HECs [5] = experiment: Fluoroblok migration assay, HECs; assay type: cell-based, human
MARCKS protein [6] = experiment: MARCKS protein Western blot, HECs; assay type: cell-based, human; conditions: 25 nM, 3 days after lipofection
Procedure: as §1, §2

MARCKS mRNA [7] = experiment: Rapid siRNA transfection, MARCKS mRNA knockdown, HVSMCs; assay type: cell-based, human; conditions: 10 minutes, 2000 cells per well
Procedure: (§3) To more rigorously study the effects of pressure on gene silencing in vascular cells and develop an in vitro model for rapid siRNA transfection, a chamber that could hold standard tissue culture plates and be pressurized with wall air was fabricated. HVSMCs and HECs were seeded in 96-well plates at a density of 6,000 cells/cm^2 and were treated with Control or MARCKS siRNA suspended in normal saline solution, without the addition of a transfection reagent, at concentrations from 1-25 μM in either water, lactate ringers solution (Baxter, Deerfield, Ill.), normal saline (Baxter), cell media, or Plasmalyte A (Baxter) supplemented with 12 mg/ml papaverine hydrochloride and 4 units/ml heparin sodium (LoGerfo, FW et al. (1984) Arch. Surg. 119(10):1212-1214). First, siRNA solutions were applied to one plate of each cell type and rapid siRNA transfection was performed by placing cells in the specially-designed pressure chamber for 10 minutes while raising the ambient pressure by 0-1 ATM using wall air. Cells were then removed from the chamber and the siRNA solution was promptly aspirated and replaced with fresh media prior to returning the plates to the incubator. Parallel plates were subjected the same siRNA treatment and placed in the chamber for 10 minutes without pressurization.
(§4) Evaluation of target gene mRNA knockdown was performed as described in Example 8 above.

HVSMCs [8] = experiment: alamarBlue proliferation assay, HVSMCs; assay type: cell-based, human
Procedure: Phenotypic analysis of vascular cell proliferation was performed using the alamarBlue assay (Trek Diagnostics, Cleveland, Ohio), as previously described (Voytik-Harbin, SL et al. (1998) In Vitro Cell Dev. Biol. Anim. 34(3):239-246), to quantitate total cellular metabolic activity in the wells of tissue culture plates. Briefly, HVSMCs were plated on 24-well plates at a density of 10,000 cells per well and grown for 24 hours in normal cell media. Afterwards, a Day 0 measurement of fluorescent intensity after 4 hour incubation with the alamarBlue reagent was obtained prior to siRNA lipofection. 24 hour siRNA lipofection in serum-free media served as the starvation period to synchronize cells in the cell cycle, followed by the application of media with 30% FBS to stimulate proliferation. AlamarBlue assays were performed every two days, followed by the reapplication of fresh media with 30% FBS. For analysis, the fluorescence intensity of each well was determined using an LS-5B Luminescence Spectrometer (PerkinElmer) at excitation and emission wavelengths of 509 and 590 nm, respectively, and was divided by the value obtained at Day 0 to generate a measure of relative proliferation.

HECs [9] = experiment: alamarBlue proliferation assay, HECs; assay type: cell-based, human; conditions: 25 nM
p27^kip1 [10] = experiment: p27kip1 Western blot after MARCKS knockdown, HECs; assay type: cell-based, human; conditions: 25 nM, 24 hours post-induction with 30% FBS, GAPDH corrected densitometry
Procedure: (§5) To investigate the differential effects of MARCKS knockdown on the proliferation of vascular cells, Western blots were performed to assess p27^kip1 expression after the induction of proliferation in HVSMCs and HECs. To assess p27^kip1 expression in the setting of MARCKS knockdown, HVSMC and HECs were transfected with 25 nM Control (C) or MARCKS (M) siRNA followed by 48 hour starvation in media with 0.1% FBS to synchronize cells in the Go phase of the cell cycle. Proliferation was then induced by the addition of media with 30% FBS and cells were lysed 24 hours post-induction for protein harvest and Western blot analysis.
as §2, with “Secondary antibodies used were peroxidase-conjugated goat anti-mouse IgG (H+L) (1:1,000-1:5,000 dilution, Chemicon International, Temecula, Calif.) and peroxidase-conjugated rabbit anti-goat IgG (H+L) (1:500 dilution, Bio-Rad). Densitometry was performed using Adobe Photoshop 6.0 or NIH Image J 1.34.” left out

MARCKS mRNA [11] = experiment: MARCKS mRNA knockdown after lipofection, HECs (qRT-PCR); assay type: cell-based, human; conditions: 5 nM, 24 hours after lipofection
Procedure: as §1
(§6) Evaluation of target gene mRNA knockdown after siRNA delivery was analyzed using a Stratagene MX3000P real time PCR (qRT-PCR) machine (Stratagene, La Jolla, Calif.). Total RNA was extracted from plate wells using RNeasy spin columns (Qiagen, Valencia, Calif.) and cDNA was prepared from […] using the iScript cDNA synthesis kit (Bio-Rad, Hercules, Calif.) prior to thermal cycling. For quantitative analysis, target gene levels were normalized to 18s or B2M levels as previously described (Bustin, S A et al. (2004) J. Mol. Endocrinol. 29(1):23-39), and target and housekeeper gene amplification reactions were performed in triplicate for each cDNA sample using 1 μl cDNA per reaction. […]
(§7) Thermal cycling was performed under the following conditions: Stage 1: 10 minutes at 95° C.; Stage 2 (40 cycles): 30 seconds at 95° C., 1 minute at 60° C., 30 seconds at 72° C. The Comparative Quantification software tool was used to compare normalized gene levels from cells transfected with targeting siRNA vs. non-targeting control siRNA (calibrators). […]

p27^kip1 [12] = experiment: p27kip1 Western blot after MARCKS knockdown, HVSMCs; assay type: cell-based, human; conditions: 25 nM, 24 hours post-induction with 30% FBS, GAPDH corrected densitometry
Procedure: as §5
as §2, with “Secondary antibodies used were peroxidase-conjugated goat anti-mouse IgG (H+L) (1:1,000-1:5,000 dilution, Chemicon International, Temecula, Calif.) and peroxidase-conjugated rabbit anti-goat IgG (H+L) (1:500 dilution, Bio-Rad). Densitometry was performed using Adobe Photoshop 6.0 or NIH Image J 1.34.” left out

MARCKS mRNA [13] = experiment: Rapid siRNA transfection, MARCKS mRNA knockdown, HECs; assay type: cell-based, human; conditions: 10 minutes, 2000 cells per well
Procedure: as §3, §4

MARCKS mRNA [14] = experiment: MARCKS mRNA knockdown after lipofection, HVSMCs (qRT-PCR); assay type: cell-based, human; conditions: 100 nM, 24 hours after lipofection
Procedure: as §1, §6, §7

[15] = test system: VSMCs in human saphenous vein; experiment: Proliferation after ex vivo siRNA transfection of whole vein; assay type: cell-based; conditions: 100 nM, three days after transfection, vs control siRNA

For Myristoyl-FARKGALRQ [20-28], the “proportion of cells migrated across the membrane” value (VSMCs [1]) was 6.9%±1.5% and the “emission at 590 nm (alamarBlue)” value (VSMCs [2]) was 58.0±12.1.

For “MARCKS siRNA: siRNA, sense 5′-GGU-GCC-CAG-UUC-UCC-AAG-AUU-3′ (SEQ ID NO. 18), anti-sense SEQ ID NO. 19 with 5′ phosphate (sense GGUGCCCAGUUCUCCAAGAUU; antisense UCUUGGAGAACUGGGCACCUU; sense: chemistry not given here; antisense: 5' {P}, sugars by position and backbone not given here)”, the “MARCKS protein knockdown (Western blot)” value (MARCKS protein [3]) was “complete knockdown”, the “cellular migration, % of controls” value (HVSMCs [4]) was 68±7% and the “effect on cellular migration” value (HECs [5]; 25 nM (FIG. 14B also 10 nM), vs control siRNA) was “no significant effect; also recorded: no significant difference”. For the same substance, the relative cellular migration (HECs [5]; 25 nM, 5% FBS with 200 ng/ml VEGF) was 1.0±0.7, the “MARCKS protein knockdown (Western blot)” value (MARCKS protein [6]) was “complete knockdown” and the MARCKS knockdown (MARCKS mRNA [7]; 0 ATM) was 0±12%. For the same substance, the MARCKS knockdown (MARCKS mRNA [7]; 0.4 ATM) was 41±12%, the “effect on HVSMC proliferation” value (HVSMCs [8]; 25 nM (FIG. 15A: 25, 50 and 100 nM), vs control scrambled siRNA) was “near complete arrest” and the “proliferation, fold increase at day 6” value (HVSMCs [8]; HVSMCs, 25 nM, 30% FBS, relative to Day 0) was 1.41±0.36 fold. The “effect on HEC proliferation” value (HECs [9]; full MARCKS knockdown) was “only a minimal effect”, the “proliferation, fold increase at day 6” value (HECs [9]; HECs, relative to Day 0) was 1.90±0.06 fold and the “increase in p27^kip1 protein expression relative to controls” value (p27^kip1 [10]) was 1.8 fold. The “MARCKS mRNA knockdown” value (MARCKS mRNA [11]) was 89±1%, the “increase in p27^kip1 protein expression relative to controls” value (p27^kip1 [12]) was 3.2 fold and the MARCKS knockdown (MARCKS mRNA [13]; 0 ATM) was 22±17%. For the same substance, the MARCKS knockdown (MARCKS mRNA [13]; 0.4 ATM) was 53±10%, the “MARCKS mRNA knockdown” value (MARCKS mRNA [14]) was 54±2% and the “effect on proliferation in transfected vein” value [15] was “reduced proliferation”.
